From patent publication US12460177B2, “Composition for promoting efficiency of somatic cell replication” (SEOUL NATIONAL UNIVERSITY HOSPITAL, priority 2018, dated 2025)

Tested on: H3K9me3 / H3K4me3 binding at the Apobec1 (demethylase) promoter region
Experiment: ChIP-PCR with Apobec1 promoter primers in human mesenchymal stem cells treated with endothelin
Type: cell-based
Conditions: endothelin treatment, FIG. 1
Source text: Human mesenchymal stem cells were transfected with siRNA of SMARCA4 or SMARCD2, treated with endothelin, and then harvested. In the present invention, human mesenchymal stem cells (Poietics™ Human Mesenchymal Stem Cells, Lonza) were used. The cells were selected by conducting a human mesenchymal stem cell identification experiment, and identified and classified as human bone marrow-derived stem cells after the expression of a positive cell marker (CD29, CD90, CD44, CD73, CD105 or CD166) for mesenchymal stem cells, the negative identification by a cell marker (CD34, CD45, CD14, HLA-DR or CD19), and the confirmation of multipotency of mesenchymal stem cells.
Genomic DNA was extracted from the recovered cells, and reacted with a H3K9me3 or H3K4me3 antibody [anti-H3K9me3 (Abcam: cat. no. ab8898), anti-H3K4me3 (Abcam; cat. no. ab8580) or normal rabbit IgG (Cell Signaling Technology: cat. no. #2729): negative control], followed by ChIP-PCR performed using Apobec1 promoter primers that are able to confirm the binding of H3K9me3 or H3K4me3. […]
Subsequently, the resulting product was heated at 65° C. for 4 hours to remove a crosslink. DNA fragments were collected using a PCR purification kit (Qiagen) and analyzed using qPCR and semi-quantitative PCR, and the results are shown in FIG. 1.

In the case of “endothelin (HLDIIW; listed as Mus musculus) [peptide generated in vascular endothelial cells, 21 amino acid residues, two S—S bonds, known as a vasoconstrictive peptide]”, the “binding of H3K4me3 (promoting gene expression) at the demethylase promoter region” value (ChIP-PCR (anti-H3K4me3)) is reported as “increases” and the “H3K9me3 (suppressing gene expression) at the demethylase promoter region” value (ChIP-PCR (anti-H3K9me3)) is reported as “detached”.
